Laboratory results reported in patent publication US9504729B2, “Antiangiogenic small molecules and methods of use” (The United States of America, as represented by the …, priority 2009, dated 2016).

Test system: angiogenesis genes in dermal microvascular endothelial cells
Experiment: Real time RT-PCR of angiogenesis gene expression during endothelial tube formation
Type: cell-based
Details: 1 μM SM, 24 hours

CC1CCN(CC[S-])CC1.O.O.[Cl][Pt+] [compound 292596]
Log2 fold-change of gene expression: 1839: −0.3 | Log2 fold-change of gene expression: 4247: −0.3 | Log2 fold-change of gene expression: 5569: 0.1 | Log2 fold-change of gene expression: 8131: 0.3 | Log2 fold-change of gene expression: 9569: −2.0 | Log2 fold-change of gene expression: 10988: 0.9 | Log2 fold-change of gene expression: 23001: 0.1 | Log2 fold-change of gene expression: 55332: −8.6 | Log2 fold-change of gene expression: 57722: −0.2 | Log2 fold-change of gene expression: 58488: 0.2 | Log2 fold-change of gene expression: 90780: −0.8 | Log2 fold-change of gene expression: 134265: −1.6 | Log2 fold-change of gene expression: AKT1: −0.8 | Log2 fold-change of gene expression: ANGPT1: 2.2 | Log2 fold-change of gene expression: ANGPT2: 0.8 | Log2 fold-change of gene expression: ANGPTL3: 1.0 | Log2 fold-change of gene expression: ANGPTL4: −3.2 | Log2 fold-change of gene expression: ANPEP: 0.8 | Log2 fold-change of gene expression: ANTXR1: −2.1 | Log2 fold-change of gene expression: APOE: 5.1 | Log2 fold-change of gene expression: ARHGEF1: −1.6 | Log2 fold-change of gene expression: Acvrl1: −1.6 | Log2 fold-change of gene expression: Adcy4: 4.3 | Log2 fold-change of gene expression: BAL1: 1.7 | Log2 fold-change of gene expression: BMP1: −0.4 | Log2 fold-change of gene expression: C1orf54: −2.2 | Log2 fold-change of gene expression: CALD1: 1.6 | Log2 fold-change of gene expression: CCL2: 2.4 | Log2 fold-change of gene expression: CCL11: 2.1 | Log2 fold-change of gene expression: CD248: 0.2 | Log2 fold-change of gene expression: CDH5: −0.2 | Log2 fold-change of gene expression: CENTD3: 0.1 | Log2 fold-change of gene expression: CLIC1: 0.6 | Log2 fold-change of gene expression: COL4A3: 1.9 | Log2 fold-change of gene expression: COL18A1: 2.3 | Log2 fold-change of gene expression: COMT: −0.7 | Log2 fold-change of gene expression: CST4: 0.3 | Log2 fold-change of gene expression: CTTNBP2NL: −3.4 | Log2 fold-change of gene expression: CXCL3: −3.8 | Log2 fold-change of gene expression: CXCL5: 5.6 | Log2 fold-change of gene expression: CXCL6: 2.2 | Log2 fold-change of gene expression: CXCL9: 1.5 | Log2 fold-change of gene expression: CXCL10: 2.5 | Log2 fold-change of gene expression: Calcr1: −4.3 | Log2 fold-change of gene expression: Caskin2: −2.3 | Log2 fold-change of gene expression: Ccbp2: 0.0 | Log2 fold-change of gene expression: Cldn5: −0.6 | Log2 fold-change of gene expression: DGKG: 1.8 | Log2 fold-change of gene expression: DKK3: −0.4 | Log2 fold-change of gene expression: DLL4: −6.6 | Log2 fold-change of gene expression: DUT: −1.2 | Log2 fold-change of gene expression: EFNA1: 3.1 | Log2 fold-change of gene expression: EFNA3: 0.5 | Log2 fold-change of gene expression: EFNB2: −3.4 | Log2 fold-change of gene expression: EGF: 2.2 | Log2 fold-change of gene expression: ENG: −0.3 | Log2 fold-change of gene expression: EPHB4: 0.9 | Log2 fold-change of gene expression: EREG: 9.6 | Log2 fold-change of gene expression: ESAM1: −2.0 | Log2 fold-change of gene expression: EXTL3: −0.5 | Log2 fold-change of gene expression: Egf17: −3.3 | Log2 fold-change of gene expression: Ehd4: −1.0 | Log2 fold-change of gene expression: Entpd1: −8.3 | Log2 fold-change of gene expression: Epas1: 0.3 | Log2 fold-change of gene expression: EphB1: 0.4 | Log2 fold-change of gene expression: Erg: −6.4 | Log2 fold-change of gene expression: FGF1: 4.8 | Log2 fold-change of gene expression: FGF2: 2.5 | Log2 fold-change of gene expression: FGFR3: 2.2 | Log2 fold-change of gene expression: FIGF: 1.7 | Log2 fold-change of gene expression: FLT1: −1.9 | Log2 fold-change of gene expression: Fgd5: −1.0 | Log2 fold-change of gene expression: GPCR124: −6.7 | Log2 fold-change of gene expression: GRRP1: 0.2 | Log2 fold-change of gene expression: Grp116: −3.1 | Log2 fold-change of gene expression: HAND2: 1.7 | Log2 fold-change of gene expression: HGF: 2.2 | Log2 fold-change of gene expression: HIF1A: −2.1 | Log2 fold-change of gene expression: HPSE: −0.3 | Log2 fold-change of gene expression: Hspa12b: −3.3 | Log2 fold-change of gene expression: ID1: 4.0 | Log2 fold-change of gene expression: ID3: 1.0 | Log2 fold-change of gene expression: IFNA1: 2.2 | Log2 fold-change of gene expression: IFNB1: 2.6 | Log2 fold-change of gene expression: IFNG: 6.5 | Log2 fold-change of gene expression: IGF1: 0.6 | Log2 fold-change of gene expression: IL1B: −4.1 | Log2 fold-change of gene expression: IL6: 3.7 | Log2 fold-change of gene expression: IL8: 5.1 | Log2 fold-change of gene expression: ITGAV: −0.9 | Log2 fold-change of gene expression: ITGB3: −1.8 | Log2 fold-change of gene expression: Icam1: 0.5 | Log2 fold-change of gene expression: Icam2: −0.4 | Log2 fold-change of gene expression: JAG1: 0.5 | Log2 fold-change of gene expression: KDR: −1.8 | Log2 fold-change of gene expression: Kifc1: 1.6 | Log2 fold-change of gene expression: LAMAS5: −0.3 | Log2 fold-change of gene expression: LECT1: 1.4 | Log2 fold-change of gene expression: LEP: 2.6 | Log2 fold-change of gene expression: Lasts2: 0.4 | Log2 fold-change of gene expression: Lrrk1: −1.5 | Log2 fold-change of gene expression: MDK: −1.5 | Log2 fold-change of gene expression: MMP2: 1.1 | Log2 fold-change of gene expression: MMP9: 1.8 | Log2 fold-change of gene expression: MMP11: −0.3 | Log2 fold-change of gene expression: MRC2: −0.5 | Log2 fold-change of gene expression: Mmm2: −2.4 | Log2 fold-change of gene expression: Myo1b: −2.0 | Log2 fold-change of gene expression: NID1: −3.6 | Log2 fold-change of gene expression: NM023516: 0.2 | Log2 fold-change of gene expression: NRP1: −2.3 | Log2 fold-change of gene expression: NRP2: −3.2 | Log2 fold-change of gene expression: Notch4: −0.6 | Log2 fold-change of gene expression: Npr3: 0.7 | Log2 fold-change of gene expression: PALD: −1.9 | Log2 fold-change of gene expression: PDCD2: −1.1 | Log2 fold-change of gene expression: PDGFA: 4.0 | Log2 fold-change of gene expression: PECAM1: −1.8 | Log2 fold-change of gene expression: PGF: −1.7 | Log2 fold-change of gene expression: PLAU: −0.2 | Log2 fold-change of gene expression: PLG: −0.4 | Log2 fold-change of gene expression: PNMT: −0.7 | Log2 fold-change of gene expression: PROK2: 2.0 | Log2 fold-change of gene expression: PTGS1: 1.1 | Log2 fold-change of gene expression: PTPRCAP: −0.5 | Log2 fold-change of gene expression: Pltp: 0.5 | Log2 fold-change of gene expression: Ptprb: −1.9 | Log2 fold-change of gene expression: Ptprm: −0.8 | Log2 fold-change of gene expression: RAMP2: −5.0 | Log2 fold-change of gene expression: RASD2: −0.5 | Log2 fold-change of gene expression: Rasip1: −0.5 | Log2 fold-change of gene expression: S1PR1: 0.2 | Log2 fold-change of gene expression: SERPINF1: 0.7 | Log2 fold-change of gene expression: SPHK1: 1.8 | Log2 fold-change of gene expression: STAB1: −0.5 | Log2 fold-change of gene expression: Sdc4: 1.4 | Log2 fold-change of gene expression: Sdpr: 0.8 | Log2 fold-change of gene expression: Slc43a3: 0.6 | Log2 fold-change of gene expression: Slco2a1: −1.0 | Log2 fold-change of gene expression: TEK: 1.3 | Log2 fold-change of gene expression: TGFA: 8.9 | Log2 fold-change of gene expression: TGFB1: −0.8 | Log2 fold-change of gene expression: TGFB2: 2.1 | Log2 fold-change of gene expression: TGFBR1: 1.4 | Log2 fold-change of gene expression: THBS1: −0.1 | Log2 fold-change of gene expression: THBS2: 1.1 | Log2 fold-change of gene expression: THY1: −5.8 | Log2 fold-change of gene expression: TIMP1: 1.4 | Log2 fold-change of gene expression: TIMP2: 0.4 | Log2 fold-change of gene expression: TIMP3: −1.2 | Log2 fold-change of gene expression: TNF: 6.1 | Log2 fold-change of gene expression: TNS1: −0.5 | Log2 fold-change of gene expression: TNS3: 1.3 | Log2 fold-change of gene expression: TRA2B: 0.9 | Log2 fold-change of gene expression: TYMP: −5.5 | Log2 fold-change of gene expression: VEGFA: 0.4 | Log2 fold-change of gene expression: VEGFC: 1.6 | Log2 fold-change of gene expression: VGLL4: −2.8 | Log2 fold-change of gene expression: Vwf: −2.6 | Log2 fold-change of gene expression: copa: −0.5 | Log2 fold-change of gene expression: itbp4: −1.5 | Log2 fold-change of gene expression: ralb: −0.5 | Log2 fold-change of gene expression: stard9: −0.9 | Log2 fold-change of gene expression: B2M (1st listing (r49)): −2.0 | Log2 fold-change of gene expression: HPRT1 (1st listing (r50)): −0.5 | Log2 fold-change of gene expression: RPL13A (1st listing (r51)): 1.9 | Log2 fold-change of gene expression: GADPH (1st listing (r52)): 0.3 | Log2 fold-change of gene expression: ACTB (1st listing (r53)): 0.0 | Log2 fold-change of gene expression: PLXDC1 (1st listing (r74)): 0.3 | Log2 fold-change of gene expression: TNFAIP2 (1st listing (r91)): −0.2 | Log2 fold-change of gene expression: Robo4 (1st listing (r95)): −1.2 | Log2 fold-change of gene expression: 151516 (1st listing (r134)): 0.3 | Log2 fold-change of gene expression: TNFAIP2 (2nd listing (r92)): −0.1 | Log2 fold-change of gene expression: B2M (2nd listing (r97)): −1.6 | Log2 fold-change of gene expression: HPRT1 (2nd listing (r98)): 0.1 | Log2 fold-change of gene expression: RPL13A (2nd listing (r99)): 1.5 | Log2 fold-change of gene expression: GADPH (2nd listing (r100)): 0.8 | Log2 fold-change of gene expression: ACTB (2nd listing (r101)): −0.4 | Log2 fold-change of gene expression: PLXDC1 (2nd listing (r104)): 0.2 | Log2 fold-change of gene expression: 151516 (2nd listing (r139)): 0.3 | Log2 fold-change of gene expression: Robo4 (2nd listing (r188)): 0.2 | Log2 fold-change of gene expression: B2M (3rd listing (r145)): −0.4 | Log2 fold-change of gene expression: HPRT1 (3rd listing (r146)): 0.4 | Log2 fold-change of gene expression: RPL13A (3rd listing (r147)): 1.1 | Log2 fold-change of gene expression: GADPH (3rd listing (r148)): −0.3 | Log2 fold-change of gene expression: ACTB (3rd listing (r149)): −0.9 | Log2 fold-change of gene expression: B2M (4th listing (r193)): −0.8 | Log2 fold-change of gene expression: HPRT1 (4th listing (r194)): 0.1 | Log2 fold-change of gene expression: RPL13A (4th listing (r195)): 0.6 | Log2 fold-change of gene expression: GADPH (4th listing (r196)): 0.4 | Log2 fold-change of gene expression: ACTB (4th listing (r197)): −0.1
